Data set [1] can be described thus: Lipophilicity, log D of the compound at pH 7.4. The class given is physicochemical. The following applies: buffer.
The subject of another data set is KB. Kind of data set: Antiproliferative activity against human KB cells. The class given is functional, cell-based.
Data set [2] in a line: AUC in mouse at 50 mg/kg, po. The class given is ADME, organism-based. The following applies: plasma. On the set-up: dose 50 mg/kg, route oral.
The next data set concerns LoVo. Kind of data set: Antitumor activity against human LoVo cells xenografted in mouse assessed as tumor growth inhibition at 100 mg/kg, po qd. The following applies: read-out: TGI. The data set is classed as functional.
Data set [3] concerns the target T1, Receptor tyrosine-protein kinase erbB-2 (Homo sapiens, UniProt P04626). Put plainly: Inhibition of human HER2 kinase domain expressed in baculovirus/Sf21 system by ELISA.
Data set [4] has as its target T1, Receptor tyrosine-protein kinase erbB-2. Put plainly: Inhibition of full-length HER2 phosphorylation transfected in human MCF-7 cl.24 cells after 4 hrs by laser scanning fluorescence microplate cytometry. The data set is classed as cell-based.
The nature of data set [5]: Fraction unbound in rat plasma. The data set is classed as ADME, cell-free.
Data set [6] is described as follows: Fraction unbound in human plasma. The data set is classed as ADME, cell-free.
Data set [7] is described as follows: Volume of distribution at steady state in AP-Wistar rat at 5 mg/kg, po and 2 mg/kg, iv. The data set is classed as ADME, organism-based. The settings on record: in vivo, read-out: Vdss.
Data set [8] in a line: Apparent permeability from apical to basolateral side of human Caco2 cells at 10 uM. The following applies: Caco-2. The data set is classed as ADME, cell-based.
Data set [9] is described as follows: Bioavailability in AP-Wistar rat at 5 mg/kg, po and 2 mg/kg, iv. The data set is classed as ADME, organism-based. The following applies: in vivo.
Another data set concerns the target T2, Cytochrome P450 1A2 (Homo sapiens, UniProt P05177).
T2 sequence (P05177 whole entry): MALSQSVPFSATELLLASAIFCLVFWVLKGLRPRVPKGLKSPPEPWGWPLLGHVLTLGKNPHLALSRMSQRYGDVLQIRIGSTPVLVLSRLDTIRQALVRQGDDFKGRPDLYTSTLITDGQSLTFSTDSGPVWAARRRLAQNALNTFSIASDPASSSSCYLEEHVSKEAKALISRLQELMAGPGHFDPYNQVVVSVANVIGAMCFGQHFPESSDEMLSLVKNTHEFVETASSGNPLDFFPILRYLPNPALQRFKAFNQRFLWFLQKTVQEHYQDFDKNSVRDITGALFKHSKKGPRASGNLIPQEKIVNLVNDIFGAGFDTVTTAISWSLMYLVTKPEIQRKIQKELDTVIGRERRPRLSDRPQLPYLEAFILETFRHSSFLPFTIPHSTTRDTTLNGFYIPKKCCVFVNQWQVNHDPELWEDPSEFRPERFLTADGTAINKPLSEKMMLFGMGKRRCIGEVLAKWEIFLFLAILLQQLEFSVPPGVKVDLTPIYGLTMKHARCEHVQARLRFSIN
Kind of data set: Inhibition of CYP1A2 (unknown origin). The class given is ADME.

Data set [10] is described as follows: Bioavailability in dog at 2 mg/kg, po and 1 mg/kg, iv. The class given is ADME, organism-based, Canis lupus familiaris. The following applies: in vivo.
The target of another data set is Cytochrome P450 2C9 (Homo sapiens, UniProt P11712). Put plainly: Inhibition of CYP2C9 (unknown origin). The data set is classed as ADME.
Data set [11] is described as follows: Clearance in dog at 2 mg/kg, po and 1 mg/kg, iv. The following applies: in vivo. The class given is ADME, organism-based, Canis lupus familiaris.
The nature of data set [12]: Intrinsic clearance in human hepatocytes assessed per million cells. The class given is ADME, cell-based, Hepatocyte. The following applies: read-out: CLH.
Data set [13] in a line: Aqueous solubility of the compound in phosphate buffer at pH 6.8. The data set is classed as physicochemical.
The next data set addresses Cytochrome P450 2D6 (Homo sapiens, UniProt P10635). Put plainly: Inhibition of CYP2D6 (unknown origin). The class given is ADME.
Data set [14] is described as follows: Volume of distribution at steady state in dog at 2 mg/kg, po and 1 mg/kg, iv. The settings on record: in vivo, read-out: Vdss. The class given is ADME, organism-based, Canis lupus familiaris.
A further data set addresses Cytochrome P450 2C19 (Homo sapiens, UniProt P33261). Put plainly: Inhibition of CYP2C19 (unknown origin). The data set is classed as ADME.
Data set [15] is described as follows: Clearance in AP-Wistar rat at 5 mg/kg, po and 2 mg/kg, iv. The data set is classed as ADME, organism-based. The settings on record: in vivo.

In brackets after ≈: the same amount, converted by molar mass. Some results are limits rather than exact numbers.

As usually defined, the logD is the decadic logarithm of the distribution of all forms, ionised or not, between an organic phase and buffer at a given pH. Low values mean lower lipophilicity, high ones higher lipophilicity. In general, IC50 refers to the midpoint of a concentration-inhibition curve. What is called AUC is concentration integrated over time. The term fraction unbound denotes free concentration divided by total concentration. As a reminder, the Papp A→B is the apparent permeability from the apical to the basolateral side of a cell layer. The term bioavailability denotes the share of a dose that reaches the circulation, judged against a reference dose that is usually intravenous. Read a high bioavailability as much systemic uptake. As usually defined, the solubility is how much of the substance goes into solution per volume. Read a low solubility as a poorly soluble substance.

T1 sequence (P04626 whole entry, the tested form may be a part): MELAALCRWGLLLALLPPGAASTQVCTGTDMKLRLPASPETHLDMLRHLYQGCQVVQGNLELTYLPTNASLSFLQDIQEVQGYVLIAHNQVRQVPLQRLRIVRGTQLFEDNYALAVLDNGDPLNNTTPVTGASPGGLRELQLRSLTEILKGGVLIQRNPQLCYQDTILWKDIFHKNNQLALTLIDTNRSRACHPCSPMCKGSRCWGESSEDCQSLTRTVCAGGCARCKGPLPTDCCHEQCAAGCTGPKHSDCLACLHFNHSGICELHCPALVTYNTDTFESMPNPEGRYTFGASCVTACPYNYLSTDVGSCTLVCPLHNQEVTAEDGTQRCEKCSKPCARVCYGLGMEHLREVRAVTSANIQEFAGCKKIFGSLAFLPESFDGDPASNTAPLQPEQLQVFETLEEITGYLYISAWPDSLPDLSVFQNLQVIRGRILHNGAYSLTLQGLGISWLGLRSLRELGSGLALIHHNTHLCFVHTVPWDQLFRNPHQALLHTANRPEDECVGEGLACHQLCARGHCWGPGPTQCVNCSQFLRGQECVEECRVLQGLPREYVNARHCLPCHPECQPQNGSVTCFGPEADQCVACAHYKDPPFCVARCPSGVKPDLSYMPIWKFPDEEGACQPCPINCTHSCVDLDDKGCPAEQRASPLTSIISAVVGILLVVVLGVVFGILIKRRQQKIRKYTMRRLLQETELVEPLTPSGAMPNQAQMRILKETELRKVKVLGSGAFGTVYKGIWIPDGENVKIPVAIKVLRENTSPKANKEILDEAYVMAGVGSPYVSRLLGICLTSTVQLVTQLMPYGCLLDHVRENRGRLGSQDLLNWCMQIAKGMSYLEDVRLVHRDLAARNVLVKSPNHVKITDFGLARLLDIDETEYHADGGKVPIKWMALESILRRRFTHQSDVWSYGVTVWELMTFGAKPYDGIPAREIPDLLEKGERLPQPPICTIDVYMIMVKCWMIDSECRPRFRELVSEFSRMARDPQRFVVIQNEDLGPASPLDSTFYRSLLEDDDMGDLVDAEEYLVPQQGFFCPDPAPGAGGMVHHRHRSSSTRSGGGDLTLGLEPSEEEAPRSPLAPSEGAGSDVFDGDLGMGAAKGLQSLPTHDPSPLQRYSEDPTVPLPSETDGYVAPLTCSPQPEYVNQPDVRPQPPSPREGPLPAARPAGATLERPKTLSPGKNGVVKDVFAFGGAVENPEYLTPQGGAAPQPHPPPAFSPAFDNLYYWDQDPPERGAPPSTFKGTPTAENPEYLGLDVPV
Sequence of Cytochrome P450 2C19 (P33261 whole entry): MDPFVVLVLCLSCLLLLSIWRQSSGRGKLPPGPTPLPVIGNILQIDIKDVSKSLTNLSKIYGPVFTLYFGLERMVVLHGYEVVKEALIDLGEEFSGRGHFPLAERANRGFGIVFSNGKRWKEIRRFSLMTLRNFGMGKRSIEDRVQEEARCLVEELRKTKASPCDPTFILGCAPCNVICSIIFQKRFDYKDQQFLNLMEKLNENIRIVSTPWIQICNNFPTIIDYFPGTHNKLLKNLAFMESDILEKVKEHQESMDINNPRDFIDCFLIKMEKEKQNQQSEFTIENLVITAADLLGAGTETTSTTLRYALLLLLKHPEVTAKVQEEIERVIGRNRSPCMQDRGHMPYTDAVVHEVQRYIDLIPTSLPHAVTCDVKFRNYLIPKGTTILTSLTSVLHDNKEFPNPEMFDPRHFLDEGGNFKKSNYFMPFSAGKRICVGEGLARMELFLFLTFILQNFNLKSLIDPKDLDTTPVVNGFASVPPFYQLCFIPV
Sequence of Cytochrome P450 2D6 (P10635 whole entry): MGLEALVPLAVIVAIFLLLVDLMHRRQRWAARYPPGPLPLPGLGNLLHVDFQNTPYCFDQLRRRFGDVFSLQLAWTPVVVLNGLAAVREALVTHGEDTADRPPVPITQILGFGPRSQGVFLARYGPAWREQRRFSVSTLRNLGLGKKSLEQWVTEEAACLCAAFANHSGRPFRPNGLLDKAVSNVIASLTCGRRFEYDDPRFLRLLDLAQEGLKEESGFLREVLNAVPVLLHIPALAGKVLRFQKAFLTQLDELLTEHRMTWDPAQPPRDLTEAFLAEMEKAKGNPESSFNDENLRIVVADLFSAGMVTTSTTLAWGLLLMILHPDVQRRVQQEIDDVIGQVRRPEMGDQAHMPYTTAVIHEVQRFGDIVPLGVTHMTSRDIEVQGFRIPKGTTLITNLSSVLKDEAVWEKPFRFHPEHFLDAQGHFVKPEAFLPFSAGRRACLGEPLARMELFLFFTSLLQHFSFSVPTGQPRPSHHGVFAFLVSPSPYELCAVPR
Sequence of Cytochrome P450 2C9 (P11712 whole entry): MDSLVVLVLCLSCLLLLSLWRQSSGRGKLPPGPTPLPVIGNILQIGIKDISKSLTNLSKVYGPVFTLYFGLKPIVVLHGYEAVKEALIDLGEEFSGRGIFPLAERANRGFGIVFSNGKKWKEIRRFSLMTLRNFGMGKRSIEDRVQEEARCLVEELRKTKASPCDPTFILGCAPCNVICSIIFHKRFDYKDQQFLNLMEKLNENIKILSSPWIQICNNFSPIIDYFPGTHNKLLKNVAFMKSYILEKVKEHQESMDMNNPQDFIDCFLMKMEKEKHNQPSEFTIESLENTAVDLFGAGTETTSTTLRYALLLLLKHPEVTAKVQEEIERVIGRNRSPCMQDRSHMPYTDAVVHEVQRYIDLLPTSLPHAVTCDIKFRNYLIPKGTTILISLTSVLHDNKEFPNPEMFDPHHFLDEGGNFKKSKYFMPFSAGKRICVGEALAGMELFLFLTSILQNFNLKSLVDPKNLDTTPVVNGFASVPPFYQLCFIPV

In turn, `COc1cc2ncnc(Nc3cccc(Cl)c3F)c2cc1OC1CCN(CC(N)=O)CC1` returned a logD in [1] of 3.1. Moreover, in the data set on KB, the IC50 amounted to 4 nM. This compound returned an AUC in data set [2] of 19 µM·h. For the same compound, the inhibition in vivo at 100 mg/kg in the data set with LoVo was found to be 36%.

Take `CCNC(=O)CN1CCC(Oc2cc3c(Nc4cccc(Cl)c4F)ncnc3cc2OC)CC1`: the IC50 in [3] came out at 33 nM; in data set [4], 120 nM.

As for `COCCNC(=O)CN1CCC(Oc2cc3c(Nc4cccc(Cl)c4F)ncnc3cc2OC)CC1`, the IC50 was 91 nM in [3] and 250 nM in [4].

In the case of `COc1cc2ncnc(Nc3cccc(Cl)c3F)c2cc1OC1CCN(CC(=O)NC(C)C)CC1`, the concentration for half-maximal inhibition (IC50) in data set [3] turned out to be 110 nM; in data set [4] it was 410 nM.

`COc1cc2ncnc(Nc3cccc(Cl)c3F)c2cc1OC1CCN(CC(=O)N(C)C)CC1`: the IC50 is 220 nM in data set [3] and 670 nM in [4].

In turn, `CNC(=O)CN1CCC(Oc2cc3c(Nc4ccc(F)c(Cl)c4)ncnc3cc2OC)CC1` showed a logD in data set [1] of 4. In addition, the fraction unbound is 0.029 in data set [5] and 0.027 in data set [6]. Moreover, the midpoint of inhibition in data set [4], the IC50, lay at 264 nM. Besides, the AUC in [2] worked out at 19 µM·h. For the same compound, the inhibition in vivo at 100 mg/kg in the data set on LoVo came to 28%.

Consider `CNC(=O)CN1CCC(Oc2cc3c(Nc4ccc(F)c(Cl)c4F)ncnc3cc2OC)CC1`, for which the 50% inhibitory concentration (IC50) in data set [4] worked out at 89 nM.

In [4], `CNC(=O)CN1CCC(Oc2cc3c(Nc4cccc(Cl)c4)ncnc3cc2OC)CC1` returned an IC50 of 360 nM.

On to `CNC(=O)CN1CCC(Oc2cc3c(Nc4cc(Cl)ccc4F)ncnc3cc2OC)CC1`, for which inhibition in data set [4] was half-maximal at 860 nM (IC50).

For `CNC(=O)CCN1CCC(Oc2cc3c(Nc4cccc(Cl)c4F)ncnc3cc2OC)CC1`, the IC50 in [4] amounted to 550 nM.

With `CNC(=O)CN1CC(Oc2cc3c(Nc4cccc(Cl)c4F)ncnc3cc2OC)C1`, in [4], inhibition was half-maximal at 1100 nM (IC50).

Compound `CNC(=O)CN(C)CCOc1cc2c(Nc3cccc(Cl)c3F)ncnc2cc1OC` yielded an IC50 in data set [4] of 1500 nM.

For `CNC(=O)CN1CCCC(Oc2cc3c(Nc4cccc(Cl)c4F)ncnc3cc2OC)C1` (racemic), half-maximal inhibition in data set [4] (IC50) was put at 230 nM.

`CNC(=O)CN1CCC(Oc2cc3c(Nc4cccc(Cl)c4F)ncnc3cc2OC)C1` (racemic): inhibition in [4] was half-maximal at 250 nM (IC50).

With `CNC(=O)CN1CCC(Oc2cc3c(Nc4cccc(Cl)c4F)ncnc3cc2OC)CC1` [SAPITINIB], the IC50 is 14 nM in data set [3]; greater than 10000 nM against Cytochrome P450 1A2; greater than 10000 nM against Cytochrome P450 2C9; 60 nM in data set [4]; greater than 10000 nM against Cytochrome P450 2D6; greater than 10000 nM on Cytochrome P450 2C19. In addition, the Vd in data set [7] was 0.8 L/kg; in [14], 0.2 L/kg. The compound also came in with a logD in [1] of 3.2. In [8], the Papp A→B at 10 µM was found to be 15.9 ×10⁻⁶ cm/s. In addition, the bioavailability in [9] turned out to be 38%; in [10] it was 89%. In addition, the fraction unbound stood at 0.072 in [5] and 0.067 in data set [6]. For the same compound, the clearance in [11] is 1.1 mL/min/kg; in data set [15] it was 13 mL/min/kg. Besides, in data set [2], the area under the curve (AUC) is 66 µM·h. Besides, the hepatocyte CLint in data set [12] was less than 4.5 µL/min/1e6 cells. The solubility in data set [13] amounted to 17 µM (≈ 8.06 µg/mL). Further, the inhibition in vivo at 100 mg/kg with LoVo turned out to be 76%.

These data come from ChEMBL document CHEMBL2407034, “Discovery of AZD8931, an Equipotent, Reversible Inhibitor of Signaling by EGFR, HER2, and HER3 Receptors” (ACS Med Chem Lett, 2013).
